Test results from PubChem BioAssay AID1259407 (Chemical Carcinogenesis Research Information System (CCRIS), 2018).
Calls of active or inactive are those of the source. No rule for the calls is given here.

System: CCRIS mutagenicity, Ames/micronucleus/aberration tests
Test: CCRIS mutagenicity studies

CN(C)P(=O)(N(C)C)N(C)C
mutagenic call (Test System: AMES SALMONELLA TYPHIMURIUM, Strain/Indicator: TA97, Metabolic Activation: HAMSTER LIVER S-9, AROCLOR 1254 (10 OR 30%), Method: PREINCUBATION): inactive; negative
mutagenic call (Test System: AMES SALMONELLA TYPHIMURIUM, Strain/Indicator: TA97, Metabolic Activation: NONE, Method: PREINCUBATION): inactive; negative
mutagenic call (Test System: AMES SALMONELLA TYPHIMURIUM, Strain/Indicator: TA97, Metabolic Activation: NONE, Method: STANDARD PLATE): inactive; negative
mutagenic call (Test System: AMES SALMONELLA TYPHIMURIUM, Strain/Indicator: TA97, Metabolic Activation: RAT LIVER S-9, AROCLOR 1254 (10 OR 30%), Method: PREINCUBATION): inactive; negative
mutagenic call (Test System: AMES SALMONELLA TYPHIMURIUM, Strain/Indicator: TA97, Metabolic Activation: RAT, LIVER, S-9, AROCLOR 1254, Method: STANDARD PLATE): inactive; negative
mutagenic call (Test System: AMES SALMONELLA TYPHIMURIUM, Strain/Indicator: TA97, Metabolic Activation: RAT, LIVER, S-9, AROCLOR 1254, Method: SUSPENSION): active; positive
mutagenic call (Test System: AMES SALMONELLA TYPHIMURIUM, Strain/Indicator: TA97, Metabolic Activation: S-9, Method: STANDARD PLATE): inactive; negative
mutagenic call (Test System: AMES SALMONELLA TYPHIMURIUM, Strain/Indicator: TA98, Metabolic Activation: HAMSTER LIVER S-9, AROCLOR 1254 (10 OR 30%), Method: PREINCUBATION): inactive; negative
mutagenic call (Test System: AMES SALMONELLA TYPHIMURIUM, Strain/Indicator: TA98, Metabolic Activation: NONE, Method: PREINCUBATION): inactive; negative
mutagenic call (Test System: AMES SALMONELLA TYPHIMURIUM, Strain/Indicator: TA98, Metabolic Activation: NONE, Method: STANDARD PLATE): inactive; negative
mutagenic call (Test System: AMES SALMONELLA TYPHIMURIUM, Strain/Indicator: TA98, Metabolic Activation: RAT LIVER S-9, AROCLOR 1254 (10 OR 30%), Method: PREINCUBATION): inactive; negative
mutagenic call (Test System: AMES SALMONELLA TYPHIMURIUM, Strain/Indicator: TA98, Metabolic Activation: RAT, LIVER, S-9, AROCLOR 1254, Method: STANDARD PLATE): inactive; negative
mutagenic call (Test System: AMES SALMONELLA TYPHIMURIUM, Strain/Indicator: TA98, Metabolic Activation: RAT, LIVER, S-9, AROCLOR 1254, Method: SUSPENSION): active; positive
mutagenic call (Test System: AMES SALMONELLA TYPHIMURIUM, Strain/Indicator: TA98, Metabolic Activation: S-9, Method: STANDARD PLATE): inactive; negative
mutagenic call (Test System: AMES SALMONELLA TYPHIMURIUM, Strain/Indicator: TA100, Metabolic Activation: HAMSTER LIVER S-9, AROCLOR 1254 (10 OR 30%), Method: PREINCUBATION): inactive; negative
mutagenic call (Test System: AMES SALMONELLA TYPHIMURIUM, Strain/Indicator: TA100, Metabolic Activation: NONE, Method: PREINCUBATION): inactive; negative
mutagenic call (Test System: AMES SALMONELLA TYPHIMURIUM, Strain/Indicator: TA100, Metabolic Activation: NONE, Method: STANDARD PLATE): inactive; negative
mutagenic call (Test System: AMES SALMONELLA TYPHIMURIUM, Strain/Indicator: TA100, Metabolic Activation: NONE, Method: SUSPENSION): inactive; negative
mutagenic call (Test System: AMES SALMONELLA TYPHIMURIUM, Strain/Indicator: TA100, Metabolic Activation: RAT LIVER S-9, AROCLOR 1254 (10 OR 30%), Method: PREINCUBATION): inactive; negative
mutagenic call (Test System: AMES SALMONELLA TYPHIMURIUM, Strain/Indicator: TA100, Metabolic Activation: RAT, LIVER, S-9, AROCLOR 1254 (4, 10 OR 30%), Method: PREINCUBATION): inactive; negative
mutagenic call (Test System: AMES SALMONELLA TYPHIMURIUM, Strain/Indicator: TA100, Metabolic Activation: RAT, LIVER, S-9, AROCLOR 1254 (10%), Method: STANDARD PLATE): inactive; negative
mutagenic call (Test System: AMES SALMONELLA TYPHIMURIUM, Strain/Indicator: TA100, Metabolic Activation: RAT, LIVER, S-9, AROCLOR 1254, Method: PREINCUBATION): inactive; negative
mutagenic call (Test System: AMES SALMONELLA TYPHIMURIUM, Strain/Indicator: TA100, Metabolic Activation: RAT, LIVER, S-9, AROCLOR 1254, Method: STANDARD PLATE): inactive; negative
mutagenic call (Test System: AMES SALMONELLA TYPHIMURIUM, Strain/Indicator: TA100, Metabolic Activation: RAT, LIVER, S-9, AROCLOR 1254, Method: SUSPENSION): active; positive
mutagenic call (Test System: AMES SALMONELLA TYPHIMURIUM, Strain/Indicator: TA100, Metabolic Activation: S-9, Method: STANDARD PLATE): inactive; negative
mutagenic call (Test System: AMES SALMONELLA TYPHIMURIUM, Strain/Indicator: TA102, Metabolic Activation: NONE, Method: STANDARD PLATE): inactive; negative
mutagenic call (Test System: AMES SALMONELLA TYPHIMURIUM, Strain/Indicator: TA102, Metabolic Activation: S-9, Method: STANDARD PLATE): inactive; negative
mutagenic call (Test System: AMES SALMONELLA TYPHIMURIUM, Strain/Indicator: TA1535, Metabolic Activation: HAMSTER LIVER S-9, AROCLOR 1254 (10 OR 30%), Method: PREINCUBATION): inactive; negative
mutagenic call (Test System: AMES SALMONELLA TYPHIMURIUM, Strain/Indicator: TA1535, Metabolic Activation: NONE, Method: PREINCUBATION): inactive; negative
mutagenic call (Test System: AMES SALMONELLA TYPHIMURIUM, Strain/Indicator: TA1535, Metabolic Activation: NONE, Method: STANDARD PLATE): inactive; negative
mutagenic call (Test System: AMES SALMONELLA TYPHIMURIUM, Strain/Indicator: TA1535, Metabolic Activation: RAT LIVER S-9, AROCLOR 1254 (10 OR 30%), Method: PREINCUBATION): inactive; negative
mutagenic call (Test System: AMES SALMONELLA TYPHIMURIUM, Strain/Indicator: TA1535, Metabolic Activation: RAT, LIVER, S-9, AROCLOR 1254, Method: STANDARD PLATE): inactive; negative
mutagenic call (Test System: AMES SALMONELLA TYPHIMURIUM, Strain/Indicator: TA1537, Metabolic Activation: NONE, Method: STANDARD PLATE): inactive; negative
mutagenic call (Test System: AMES SALMONELLA TYPHIMURIUM, Strain/Indicator: TA1537, Metabolic Activation: RAT, LIVER, S-9, AROCLOR 1254, Method: STANDARD PLATE): inactive; negative
mutagenic call (Test System: AMES SALMONELLA TYPHIMURIUM, Strain/Indicator: TA1537, Metabolic Activation: RAT, LIVER, S-9, AROCLOR 1254, Method: SUSPENSION): active; positive
mutagenic call (Test System: AMES SALMONELLA TYPHIMURIUM, Strain/Indicator: TA1538, Metabolic Activation: NONE, Method: STANDARD PLATE): inactive; negative
mutagenic call (Test System: AMES SALMONELLA TYPHIMURIUM, Strain/Indicator: TA1538, Metabolic Activation: RAT, LIVER, S-9, AROCLOR 1254, Method: STANDARD PLATE): inactive; negative
mutagenic call (Test System: CHINESE HAMSTER OVARY, Strain/Indicator: CHO/6-THIOGUANINE, Metabolic Activation: HAMSTER EMBRYO CELL-MEDIATED): inactive; negative
mutagenic call (Test System: CHINESE HAMSTER OVARY, Strain/Indicator: CHO/6-THIOGUANINE, Metabolic Activation: NONE): inactive; negative
mutagenic call (Test System: CHINESE HAMSTER OVARY, Strain/Indicator: CHO/OUABAIN, Metabolic Activation: HAMSTER EMBRYO CELL-MEDIATED): inactive; negative
mutagenic call (Test System: CHINESE HAMSTER OVARY, Strain/Indicator: CHO/OUABAIN, Metabolic Activation: NONE): inactive; negative
mutagenic call (Test System: CHINESE HAMSTER V-79, Strain/Indicator: V-79 (HGPRT)/6-THIOGUANINE, Metabolic Activation: NONE): inactive; negative
mutagenic call (Test System: CHINESE HAMSTER V-79, Strain/Indicator: V-79 (HGPRT)/6-THIOGUANINE, Metabolic Activation: RAT, LIVER, S-9, PHENOBARBITAL AND BETA-NAPHTHOFLAVONE): inactive; negative
mutagenic call (Test System: CHINESE HAMSTER V-79, Strain/Indicator: V-79/6-THIOGUANINE, Metabolic Activation: NONE, Method: REPLATING): active; positive
mutagenic call (Test System: CHINESE HAMSTER V-79, Strain/Indicator: V-79/OUABAIN, Metabolic Activation: HAMSTER EMBRYO CELL-MEDIATED): inactive; negative
mutagenic call (Test System: CHINESE HAMSTER V-79, Strain/Indicator: V-79/OUABAIN, Metabolic Activation: RAT, LIVER, S-15, PHENOBARBITAL AND 5,6-BENZOFLAVONE): inactive; negative
mutagenic call (Test System: MOUSE LYMPHOMA, Strain/Indicator: L5178Y (TK+/+)/OUABAIN, Metabolic Activation: NONE, Method: SUSPENSION/PLATE): active; positive
mutagenic call (Test System: MOUSE LYMPHOMA, Strain/Indicator: L5178Y (TK+/-)/TRIFLUOROTHYMIDINE, Metabolic Activation: RAT LIVER S-9, AROCLOR 1254, Method: SUSPENSION/PLATE): inactive; negative
mutagenic call (Test System: MOUSE LYMPHOMA, Strain/Indicator: L5178Y (TK+/-)/TRIFLUROTHYMIDINE, Metabolic Activation: NONE, Method: SUSPENSION/PLATE): active; positive
mutagenic call (Test System: MOUSE LYMPHOMA, Strain/Indicator: L5178Y (TK+/TK-), Metabolic Activation: NONE, Method: MICROWELL): active; positive
mutagenic call (Test System: MOUSE LYMPHOMA, Strain/Indicator: L5178Y (TK+/TK-), Metabolic Activation: RAT, LIVER, S-9, AROCLOR 1254, Method: SUSPENSION/PLATE): inactive; negative
mutagenic call (Test System: MOUSE LYMPHOMA, Strain/Indicator: L5178Y (TK+/TK-), Metabolic Activation: RAT, LIVER, S-9, Method: SUSPENSION/PLATE): inactive; negative
mutagenic call (Test System: MOUSE LYMPHOMA, Strain/Indicator: L5178Y (TK+/TK-), Metabolic Activation: S-9, Method: MICROWELL): active; positive
mutagenic call (Test System: UDS RAT HEPATOCYTES, Strain/Indicator: THY INCORP, Metabolic Activation: NONE, Method: LIQUID SCINTILLATION COUNTING): active; positive
